{"source": "patent US20080161403A1", "about": "“1-(1,2 Diphenyl-Ethyl)-3-(2-Hydroxyethyl)-Thiourea Compounds For Combating Animal Pests” (priority 2005, published 2008)", "system": "Spodoptera eridania", "assay": "Southern armyworm (Spodoptera eridania), 2nd instar larvae, on dipped lima bean foliage", "type": "in vivo", "conditions": "300 ppm, at 5 days", "procedure": "The active compounds were formulated • a. for testing the activity against Aphis gossypii, Myzus persicae, and Aphis fabae, as 50:50 acetone:water solutions amended with 100 ppm Kinetic® (surfactant), • b. for testing the activity against Spodoptera eridania as a 10.000 ppm solution in a mixture of 35% acetone and water, which was diluted with water, if needed.\nAfter the experiments were completed, in each case the lowest concentration was determined at which the compound still caused an 75 to 100% inhibition or mortality in comparison with untreated controls (limit or minimal concentration).\nFoliage of two Sieva lima beans plants at the first expanded true-leaf stage that are contained within a single 3.8 cm square plastic pot are dipped into the test solution with agitation for 3 seconds and allowed to dry in a hood. The pot is then placed in a 25.4 cm plastic zipper top bag and infested with ten 2nd instar caterpillars. At 5 days, observations are made of mortality, reduced feeding, or any interference with normal molting."}
{"smiles": "OCCNC(=S)NC(Cc1cccc(C(F)(F)F)c1)c1cc(Cl)ccc1Cl", "note": "(stereo not shown) [Example 77]", "values": [{"measurement": "mortality in comparison with untreated controls", "result": "over 75%"}]}
